In patent US7820636B2, “Sugar intake promoters” (Otsuka Pharmaceutical Co., Ltd., priority 2001, dated 2010):

System: human epidermal keratinocytes
Assay: 3H-2-deoxyglucose uptake in epidermal keratinocytes
Format: cell-based
Settings: for promotion effect relative to that of adenosine at the same concentration: p<0.05; for action of promoting epidermal keratinocytic glucose uptake (qualitative): FIG. 1
Protocol: The influence of purine base on glucose uptake in epidermal keratinocytes was examined using adenosine 5′-phosphate-2Na (AMP-2Na), adenosine and inosine as test compounds. As a control, the experiment was carried out in a similar manner without using the test compound.
Human epidermal keratinocyates (normal human neonatal foreskin epidermal keratinocytes, “Epidercell NHEK(F)”, product of Kurabo industries, Ltd.) were initially cultured in a 10-cm petri dish and stored in a frozen state until use. At the time of use, the cryopreserved cells were cultured on a 24-well plate for about 6 to 7 days and subjected to this experiment when the cells were 70-80% confluent.
A glucose-free medium was prepared by adding to a serum-free medium for the growth of epidermal keratinocytes (“HuMedia-KG2”, special ordered medium, product of Kurabo Industries, Ltd.) 1 ml of calcium solution and 0.1 ml of phenol red packaged with the medium product. Bovine serum albumin (BSA) treated with activated carbon to remove impurities was added to the medium to become a concentration of 1% and the medium was adjusted to pH 7.4 with NaOH.
1 ml of 10 mM 2-deoxyglucose, 60 μl of 250 μCi/250 μl ^3H-2-deoxyglucose and 940 μl of 1% BSA/glucose-free medium (pH 7.4) were mixed.
Epidermal keratinocytes cultured in a 24-well plate were washed with PBS(−) (Ca^2+ and Mg^2+ free phosphate buffered saline) three times. After addition of serum-free medium for the growth of epidermal keratinocytes (“HuMedia-KG2”, special ordered medium, product of Kurabo Industries, Ltd.), the cells were cultured for 2 hours and then washed with PBS(−) three times. After addition of 1 ml of 1% BSA/glucose-free medium (pH 7.4) in which the test compound was dissolved, the cells were cultured for 30 minutes and then 20 μl of ^3H-2-deoxyglucose solution was added per ml of the medium. The cells were allowed to stand for 10 minutes and then washed with ice-cooled glucose-containing PBS(−) three times. After addition of 0.5 ml of 0.1N NaOH containing 0.1% SDS, the cells ware allowed to stand in a static condition for at least 2 hours to produce a cell lysate solution. 0.5 ml of 0.11N HCl containing 0.1% SDS was added to acidify the cell lysis solution. 80 μl of the cell lysate solution was used for protein assay (“DC Protein Assay”, product of Bio-Rad), and 750 μl of the same was placed into a glass bottle. 20 ml of a liquid scintillation cocktail (ACS-II, product of Amersham) was added. After gently stirring the mixture, radioactivity was assayed using the liquid scintillation counter. The radioactivity per unit amount of protein was determined from the measured radioactivity and the amount of ^3H-2-deoxyglucose uptake (H-DPM (μg)/μg protein) was calculated by subtracting the radioactivity due to non-specific 3H-2-deoxyglucose uptake.
The above experiment was carried out twice and the mean averages were calculated. For comparison with the control, each value was converted to a ratio to the control value set as 1. […] In FIG. 1, the abscissa designates the concentration (log M) of each purine base (AMP-2Na, adenosine, inosine), and the ordinate designates the ratio of cellular 2-deoxyglucose uptake amount (H-DPM (μg)/μg protein) relative to the control set as 1.

SMILES | promotion of glucose uptake relative to control (ratio, control = 1) (10^-5 M, first experiment) | promotion of glucose uptake relative to control (ratio, control = 1) (10^-5 M, second experiment) | promotion of glucose uptake relative to control (ratio, control = 1) (10^-6 M, first experiment) | promotion effect relative to that of adenosine at the same concentration (10^-6 M, first experiment) | promotion of glucose uptake relative to control (ratio, control = 1) (10^-6 M, second experiment) | promotion effect relative to that of adenosine at the same concentration (10^-6 M, second experiment) | glucose uptake promotion compared with inosine (qualitative) (low concentration (10^-7 M)) | action of promoting epidermal keratinocytic glucose uptake (qualitative)
Nc1ncnc2c1ncn2[C@@H]1O[C@H](COP(=O)([O-])[O-])[C@@H](O)[C@H]1O.[Na+].[Na+] [AMP-2Na, adenosine 5′-phosphate-2Na] | about 1.61 times | about 1.43 times | about 1.48 times | about 1.16 times | about 1.48 times | about 1.32 times | promotes glucose uptake more effectively than inosine | 
Nc1ncnc2c1ncn2[C@@H]1O[C@H](CO)[C@@H](O)[C@H]1O [adenosine] |  |  |  |  |  |  |  | have the action of promoting epidermal keratinocytic glucose uptake
OC[C@H]1O[C@@H](n2cnc3c(O)ncnc32)[C@H](O)[C@@H]1O [inosine] |  |  |  |  |  |  |  | have the action of promoting epidermal keratinocytic glucose uptake
